Like-named read-outs stand apart in the source and are kept apart here. *1 amine or outer side, *2 acyl side, *3 side chain or, on linkers, in order; H or OH if unused. Where a SMILES comes first, the peptide text is derived from it. Bridges are numbered along the chain shown (N, C = ends). [ ]: non-standard residue; d: D form. The star is where a group is joined. hTyr(3S-OH,4S-OH,3'-OSO3H) = N[C@H](C(=O)O)[C@H](O)[C@@H](O)c1ccc(O)c(OS(=O)(=O)O)c1; pTerphenylCO(4''-OnC5H11) = CCCCCOc1ccc(-c2ccc(-c3ccc(C(=O)*)cc3)cc2)cc1; Orn(4R-OH,5R-OH) = O=C([C@H](C[C@@H](O)[C@@H](O)N[*:3])N[*:1])[*:2]; hTyr(3S-OH,4S-OH) = N[C@H](C(=O)O)[C@H](O)[C@@H](O)c1ccc(O)cc1; Pro(3S-OH,4S-Me) = C[C@H]1CN[C@H](C(=O)O)[C@H]1O; X1 = CCCCCOc1ccc(-c2cc(-c3ccc(C(=O)*)cc3)no2)cc1; Gln(3R-OH) = NC(=O)C[C@@H](O)[C@H](N)C(=O)O; Hyp = O=C(O)[C@@H]1C[C@@H](O)CN1
Legend:
OATP1B1 [1] = target: T1, OATP1B1 (Homo sapiens, UniProt Q9Y6L6); test: Inhibition of OATP1B1-mediated [3H]EβG uptake in HEK293 cells; details: for IC50: 0.2 µM EβG, 15 min pre-incubation + 15 min co-incubation; for OATP1B1 inhibitory potency compared with parent drug itraconazole: EβG uptake
T1 sequence (Q9Y6L6 1-691): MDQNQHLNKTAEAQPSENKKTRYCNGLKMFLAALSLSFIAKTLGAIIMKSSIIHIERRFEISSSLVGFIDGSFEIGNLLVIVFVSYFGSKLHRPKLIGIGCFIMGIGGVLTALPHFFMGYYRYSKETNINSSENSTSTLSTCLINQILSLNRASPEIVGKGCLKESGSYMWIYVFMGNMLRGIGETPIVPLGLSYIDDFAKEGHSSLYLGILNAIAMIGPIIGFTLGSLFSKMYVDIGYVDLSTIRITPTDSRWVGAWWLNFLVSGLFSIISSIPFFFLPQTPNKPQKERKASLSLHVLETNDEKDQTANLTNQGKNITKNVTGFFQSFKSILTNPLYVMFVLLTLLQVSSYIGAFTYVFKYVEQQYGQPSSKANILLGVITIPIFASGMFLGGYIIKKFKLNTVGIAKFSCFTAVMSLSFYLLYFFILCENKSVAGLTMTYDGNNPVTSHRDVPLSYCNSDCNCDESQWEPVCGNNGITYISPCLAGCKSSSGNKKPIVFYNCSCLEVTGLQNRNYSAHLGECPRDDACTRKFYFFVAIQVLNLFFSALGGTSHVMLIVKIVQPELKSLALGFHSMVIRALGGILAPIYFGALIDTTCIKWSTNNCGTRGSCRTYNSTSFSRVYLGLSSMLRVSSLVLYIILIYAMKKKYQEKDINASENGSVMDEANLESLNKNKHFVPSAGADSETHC
Description: (§1) In brief, radioactive uptake assays were performed utilizing HEK293 cell lines stably expressing OATP1B1 or OATP1B2, or cells expressing the respective vector control (VC) [17, 18]. […] Cells were cultured in Dulbecco’s Modified Eagle Medium (DMEM; Invitrogen) supplemented with 10% FBS; the media for cells expressing OATP1B1 or VC was supplemented with hygromycin B (25 mg/mL; Invitrogen), and blasticidin (37.5 mg/mL; Biovision).
(§2) For inhibition experiments, cells were seeded in 12- or 24-well plates in phenol red-free media and were incubated at 37 °C for 24 h; cells overexpressing OATP1B1 or VC were incubated with doxycycline (1 µg/mL) for 24 h. Cells were washed with warm PBS and pre-incubated with the indicated concentrations of each potential inhibitor (or an equal volume of vehicle) in phenol red-free DMEM (without FBS and supplements) at 37 °C for 15 min. […] The experiment was terminated by washing three times with ice-cold PBS. Cells were lysed with 1 N NaOH overnight at 4 °C, and the solution was neutralized with 2 M HCl. […] The OATP1B-mediated uptake was calculated by dividing the disintegrations per minute (dpm) from each replicate by the amount of protein (mg) and subtracting the dpm/mg protein in the VC cell line. The OATP1B1-mediated uptake at each concentration of each antifungal drug was then compared with the OATP1B1-mediated uptake when only an equal volume of vehicle (water or DMSO) was added without the antifungal drug.

OATP1B2 = target: T2, OATP1B2 (Mus musculus, UniProt Q9JJL3); test: Inhibition of OATP1B2-mediated [3H]EβG uptake in HEK293 cells
T2 sequence (Q9JJL3 1-689): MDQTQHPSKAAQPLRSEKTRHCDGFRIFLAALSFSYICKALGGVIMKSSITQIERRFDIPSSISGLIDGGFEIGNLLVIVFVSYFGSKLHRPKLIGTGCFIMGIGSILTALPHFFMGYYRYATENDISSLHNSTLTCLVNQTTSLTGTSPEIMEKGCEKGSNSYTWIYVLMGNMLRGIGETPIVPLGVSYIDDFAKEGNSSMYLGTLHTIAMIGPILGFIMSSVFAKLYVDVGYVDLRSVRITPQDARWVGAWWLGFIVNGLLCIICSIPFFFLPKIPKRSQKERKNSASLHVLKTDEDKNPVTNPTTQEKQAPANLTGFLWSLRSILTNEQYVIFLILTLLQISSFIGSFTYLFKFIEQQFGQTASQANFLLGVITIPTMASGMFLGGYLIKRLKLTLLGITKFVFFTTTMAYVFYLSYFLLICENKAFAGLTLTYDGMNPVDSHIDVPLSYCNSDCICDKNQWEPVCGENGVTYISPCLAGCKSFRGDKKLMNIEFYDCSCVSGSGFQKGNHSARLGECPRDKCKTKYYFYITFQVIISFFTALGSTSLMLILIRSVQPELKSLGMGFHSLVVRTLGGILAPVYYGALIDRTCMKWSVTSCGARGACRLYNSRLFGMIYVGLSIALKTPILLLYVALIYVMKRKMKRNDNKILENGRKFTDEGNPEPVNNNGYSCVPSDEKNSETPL
Description: as §1, §2

OATP1B1 [2] = target: T1, OATP1B1; test: In vitro to in vivo extrapolation (FDA basic models: Cmax,ss/IC50 and R value); details: FDA 2020 guidance Equation (2), >1.1 indicates potential to inhibit in vivo
Description: In brief, we utilized the equation Cmax,ss/IC50. To use this equation, we identified the mean total peak concentration at the steady-state of each potential inhibitor (Cmax,ss) from the published literature on the clinical pharmacokinetics of each agent (Supplementary Table S2). We then divided Cmax,ss by the IC50 of the respective agents. (1) CMax,ss/IC50
As indicated by the FDA guidelines, values of >0.1 indicate the potential for a clinically relevant interaction.
To utilize this equation, we used the previously determined Cmax,ss (Supplementary Table S2). Where necessary, the molar weight was used to convert the dose or Cmax,ss to µM. We determined the unbound fraction in plasma (fup) for each drug from publicly available literature. […] As recommended by the FDA guidelines, the fraction absorbed (Fa) and intestinal availability (Fg) were set to 1, fup was set to 1% when reported to be less than 1%, and the absorption constant (ka) was set to 0.1 min^−1 (as a worst-case estimate).

OATP1B1 [3] = target: T1, OATP1B1; test: Radioactive uptake and membrane/intracellular fractionation in cells overexpressing OATP1B1 or vector; assay type: cell-based; design: expressed in transfected cells; details: 0.2 µM EβG or 1 µM venetoclax, 15 min
Description: For experiments seeking to directly determine if venetoclax is an OATP1B1 substrate, cells overexpressing OATP1B1 or VC were seeded in six-well plates in phenol red-free DMEM containing 10% FBS and doxycycline (1 µg/mL) for 24 h. […] Cells were then immediately lysed with 1 mL of 1 N NaOH for 4 h on an orbital shaker at room temperature to measure total radioactivity. Alternatively, cells were trypsinized with 200 µL of TrypLE (Thermo Fisher Scientific, Waltham, MA, USA) for 3–5 min, rinsed with 800 µL of ice-cold washing buffer, and ProteoExtract Native Membrane Protein Extraction Kits (EMD Millipore, Burlington, MA, USA) were used to separate membrane and intracellular fractions. Dissociated cells were then transferred to 1.5-mL Eppendorf tubes. For measurement of total radioactivity, cells were neutralized with 500 µL of 2 M HCl after 4 h. For measurement of total radioactivity in the membrane or intracellular fraction, cells were isolated following the manufacturer’s protocol, as we have reported previously; this procedure is based on a differential extraction procedure under non-denaturing conditions.

OATP1B1 [4] = tested on: OATP1B1; design: method as in PMID 27273149; details: previous data, weak inhibition; cited from earlier work
[5] = cited from earlier work
OATP1B1 [6] = target: T1, OATP1B1; test: Competitive counterflow assay with 8-acetoxy-trisulfopyrene; assay type: cell-based; design: expressed in transfected cells; details: 5 µM ACE; venetoclax 200 µM, cyclosporin A 10 µM, paraformaldehyde 0.5%; 20 min
Description: Competitive counterflow assays were performed with 8-acetoxy-trisulfopyrene, an activatable fluorogenic probe for OATP1B1, as described previously. In brief, cells expressing a vector or OATP1B1 were seeded in 96-well opaque plates in phenol-red free DMEM media with 10% FBS and induced with doxycycline for 24 h. On the day of the experiment, the media was removed, and the cells were washed three times with warm PBS. The cells were then incubated for 20 min at 37 °C with 100 µL of 5 µM 8-acetoxypyrene-1,3,6-trisulfonate uptake buffer (ACE; 125 mM NaCl, 4.8 mM KCl, 1.2 mM CaCl2, 1.2 mM KH2PO4, […], 25 mM 2-N-morpholino), ethanesulfonic acid, and 5.6 mM glucose, with the pH adjusted to 5.5). […] The fluorescence was measured at excitation and emission wavelengths of 460 nm and 510 nm, respectively, after 20 min of incubation to control for the number of cells.
The plates were incubated for 20 min at 37 °C. In the final step, the supernatant was removed, and the cells were washed three times with 200 µL ice-cold PBS to stop the reaction. PBS was then removed and 200 µL of 0.1 N NaOH was added to each well to normalize the pH. The fluorescence was measured as described above after another 20 min incubation at room temperature. The levels of cell dye were reported as a percent of the measurement from cells containing ACE alone.

[7] = OATP1B2 IC50, HEK293 cells, 0.2 µM EβG, 15 min pre-incubation + 15 min co-incubation

| Compound | IC50 (OATP1B1 [1]; OATP1B1 IC50, HEK293 cells) [µM] | IC50 (OATP1B2; [7]) [µM] | R value (OATP1B1 [2]) | further results |
| --- | --- | --- | --- | --- |
| CCCCCOc1ccc(-c2ccc(-c3ccc(C(=O)N[C@H]4C[C@@H](O)[C@@H](O)NC(=O)[C@@H]5[C@@H](O)[C@@H](C)CN5C(=O)[C@H]([C@@H](C)O)NC(=O)[C@H]([C@H](O)[C@@H](O)c5ccc(O)cc5)NC(=O)[C@@H]5C[C@@H](O)CN5C(=O)[C@H]([C@@H](C)O)NC4=O)cc3)cc2)cc1 [Anidulafungin] ({pTerphenylCO(4''-OnC5H11)}-[Orn(4R-OH,5R-OH)]T[Hyp][hTyr(3S-OH,4S-OH)]T[Pro(3S-OH,4S-Me)]; lactam 1-C) | 42 | – | – | – |
| CC[C@H](C)C[C@H](C)CCCCCCCCC(=O)N[C@H]1C[C@@H](O)[C@@H](NCCN)NC(=O)[C@@H]2[C@@H](O)CCN2C(=O)[C@H]([C@H](O)CCN)NC(=O)[C@H]([C@H](O)[C@@H](O)c2ccc(O)cc2)NC(=O)[C@@H]2C[C@@H](O)CN2C(=O)[C@H]([C@@H](C)O)NC1=O [Caspofungin] | 9.2 | > 100 | – | – |
| CC(C)c1nc(CN(C)C(=O)N[C@@H](CCN2CCOCC2)C(=O)N[C@H](CC[C@H](Cc2ccccc2)NC(=O)OCc2cncs2)Cc2ccccc2)cs1 [Cobicistat] | 0.31 | 0.7 | > 1.1 | – |
| C[C@]12CC[C@@H]3c4ccc(O)cc4CC[C@H]3[C@@H]1CC[C@@H]2O[C@@H]1O[C@H](C(=O)O)[C@@H](O)[C@H](O)[C@H]1O [EβG, Estradiol-17β-D-glucuronide] | – | – | – | Uptake in the intracellular fraction with overexpression of OATP1B1 versus vector (OATP1B1 [3]): significant increases |
| OC(Cn1cncn1)(Cn1cncn1)c1ccc(F)cc1F [Fluconazole] | 4100 | > 5000 | – | – |
| CC(O)C(C)n1ncn(-c2ccc(N3CCN(c4ccc(OCC5COC(Cn6cncn6)(c6ccc(Cl)cc6Cl)O5)cc4)CC3)cc2)c1=O (stereo not shown) [Hydroxy-ITZ, hydroxy-itraconazole] | 3.5 | > 2 | – | OATP1B1 inhibitory potency compared with parent drug itraconazole (OATP1B1 [1]; HEK293 cells): more potent inhibitors of OATP1B1 than the parent drug |
| C[C@@H](c1nc(-c2ccc(C#N)cc2)cs1)[C@](O)(Cn1cncn1)c1cc(F)ccc1F [Isavuconazole] | 2.5 | 2.5 | > 1.1 | IC50 (OATP1B1 [4]): > 10 µM |
| CCC(C)n1ncn(-c2ccc(N3CCN(c4ccc(OCC5COC(Cn6cncn6)(c6ccc(Cl)cc6Cl)O5)cc4)CC3)cc2)c1=O (stereo not shown) [Itraconazole] | 37 | > 50 | – | – |
| CC(=O)C(C)n1ncn(-c2ccc(N3CCN(c4ccc(OC[C@H]5CO[C@](Cn6cncn6)(c6ccc(Cl)cc6Cl)O5)cc4)CC3)cc2)c1=O (stereo partly shown) [Keto-ITZ, keto-itraconazole] | – | – | – | OATP1B1 inhibitory potency compared with parent drug itraconazole (OATP1B1 [1]; HEK293 cells): more potent inhibitors of OATP1B1 than the parent drug; IC50 (OATP1B1 [1]; read-out: OATP1B1 IC50, HEK293 cells): 8.3 µM |
| CC(=O)N1CCN(c2ccc(OCC3COC(Cn4ccnc4)(c4ccc(Cl)cc4Cl)O3)cc2)CC1 (stereo not shown) [Ketoconazole] | 1.5 | 2.2 | – | Fraction Unbound (fup) [5]: 3.2% |
| CCCCCOc1ccc(-c2cc(-c3ccc(C(=O)N[C@H]4C[C@@H](O)[C@@H](O)NC(=O)[C@@H]5[C@@H](O)[C@@H](C)CN5C(=O)[C@H]([C@H](O)CC(N)=O)NC(=O)[C@H]([C@H](O)[C@@H](O)c5ccc(O)c(OS(=O)(=O)O)c5)NC(=O)[C@@H]5C[C@@H](O)CN5C(=O)[C@H]([C@@H](C)O)NC4=O)cc3)no2)cc1 [Micafungin] (X1-[Orn(4R-OH,5R-OH)]T[Hyp][hTyr(3S-OH,4S-OH,3'-OSO3H)][Gln(3R-OH)][Pro(3S-OH,4S-Me)]; lactam 1-C) | 2.1 | 4.9 | > 1.1 | – |
| CC[C@@H]([C@H](C)O)n1ncn(-c2ccc(N3CCN(c4ccc(OC[C@@H]5CO[C@@](Cn6cncn6)(c6ccc(F)cc6F)C5)cc4)CC3)cc2)c1=O [Posaconazole] | 1.9 | > 80 | > 1.1 | IC50 (OATP1B2; IC50 (Figure S7, Relative OATP1B2 Function), HEK293 cells expressing OATP1B2, EβG uptake, value printed in figure panel): > 100 µM; IC50 at 15 min (OATP1B2; mouse, HEK293 cells stably expressing OATP1B2, probe [3H]EβG, 0.2 µM, OATP1B2 IC50, HEK293 cells, 0.2 µM EβG, 15 min pre-incubation + 15 min co-incubation): > 20 µM |
| CO[C@H]1/C=C/O[C@@]2(C)Oc3c(C)c(O)c4c(O)c(c(/C=N/N5CCN(C)CC5)c(O)c4c3C2=O)NC(=O)/C(C)=C\C=C\[C@H](C)[C@H](O)[C@@H](C)[C@@H](O)[C@@H](C)[C@H](OC(C)=O)[C@@H]1C [Rifampin] | < 3 | 2.1 | > 1.1 | – |
| C[C@@H](c1ncncc1F)[C@](O)(Cn1cncn1)c1ccc(F)cc1F [Voriconazole] | 80 | > 200 | – | – |
| paraformaldehyde | – | – | – | Effect on fluorescence (cell dye level) in competitive counterflow (OATP1B1 [6]): did not decrease fluorescence |
